Here are results for two molecules from patent US20220370502A1, “Active Ingredient of an Erythrocytes-containing Composition” (priority 2020, published 2022).

Format in all cases: cell-based
Series [1] concerns human erythrocytes. In words: Annexin-V-FLUOS binding (eryptosis) by flow cytometry. The protocol: (§1) Single treatment: Erythrocytes were treated with costunolide or chelerythrine for 24 hours (see FIGS. 2, 4, 5 and 6). Double treatments: Erythrocytes were first pre-treated with chelerythrine for two hours, followed by treatment with costunolide for further 24 hours (see FIGS. 3 and 7). Thus, the incubation time for chelerythrine-treated erythrocytes lasted 26 h and 24 h for costunolide-treated erythrocytes. In single (0.2% v/v DMSO) and double treatments (0.4% v/v DMSO), DMSO-treated cells served as negative controls. […]
(§2) At the end of the incubation period, 0.1 ml erythrocytes (3×10^6) were added in 500 μl annexin wash buffer, mixed thoroughly and pelleted by centrifuging. […] After an incubation period of 20 minutes in the dark at room temperature, 200 μl annexin binding buffer was added to each sample, thoroughly vortexed to obtain single cell suspensions, and analyzed by flow cytometry on a FACS Calibur (Becton Dickinson, Heidelberg, Germany). In the FL1-channel, binding of annexin-V-FLUOS (eryptosis) was measured. Erythrocyte volume was determined by forward scatter (FSC). To this end, corresponding erythrocytes suspensions were immediately analysed by flow cytometry.

Series [2] concerns human erythrocytes. In words: Erythrocyte volume by forward scatter (cell shrinkage). Particulars: single treatment with increasing concentrations of costunolide, 24 h, FIG. 2. As to the method: as §1, §2
In series [3] the test system is human erythrocytes. In words: Hemolysis measurement (hemoglobin in supernatant, 405 nm). The following applies: costunolide treatment, 24 h, FIG. 2C. The protocol: After 24 hours treatment of erythrocytes (0.6% Hct) with costunolide and/or chelerythrine, hemolysis was determined. 600 μl cell suspension form each condition containing 3.6×10^6 erythrocytes centrifuged for 8 min at 420×g, 4° C., and the supernatants were harvested. As a measure of hemolysis, the hemoglobin (Hb) concentration of the supernatants was determined photometrically at 405 nm. The absorption of the supernatant of DMSO-treated erythrocytes lysed in 600 μl distilled water was defined as 100%. From this the standard curve was made by serial dilution.

The target of series [4] is T1, glucose-6-phosphate dehydrogenase (G6PDH) (Homo sapiens, UniProt P11413).
T1 construct: endogenous in cells; host or cells: human erythrocytes (RBCs), hemolysate
T1 sequence (P11413 whole entry): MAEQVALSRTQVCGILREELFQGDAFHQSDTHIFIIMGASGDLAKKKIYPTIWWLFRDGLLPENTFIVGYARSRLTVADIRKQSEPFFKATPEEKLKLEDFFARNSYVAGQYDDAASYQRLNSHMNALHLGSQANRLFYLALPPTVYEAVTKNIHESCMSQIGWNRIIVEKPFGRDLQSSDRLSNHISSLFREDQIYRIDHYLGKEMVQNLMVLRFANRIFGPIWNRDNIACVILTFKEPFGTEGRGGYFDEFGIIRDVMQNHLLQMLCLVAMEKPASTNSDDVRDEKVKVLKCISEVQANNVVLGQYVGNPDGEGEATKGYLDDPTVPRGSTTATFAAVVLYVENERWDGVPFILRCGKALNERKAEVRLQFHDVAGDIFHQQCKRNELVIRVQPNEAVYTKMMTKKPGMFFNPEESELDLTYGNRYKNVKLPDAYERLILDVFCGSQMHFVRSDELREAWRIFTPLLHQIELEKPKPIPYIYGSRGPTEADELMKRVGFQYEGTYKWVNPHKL
As to the kind of experiment: Determination of G6PDH activity in erythrocyte lysates. The following applies: costunolide treatment of erythrocytes, 24 h, FIG. 6. The protocol: Pure RBCs (0.6% Hct) were incubated in 20 ml Ringer solution and treated with DMSO or different concentrations of costunolide. 24 hrs later, cell suspensions were centrifuged at 10° C., 228×g. Supernatants were removed and the cell pellets were stored at −80° C. until analyses. G6PDH activity was measured in lysates according to methods recommended by the International Committee for Standardization in Hematology (Di lorio E.E. 1981; l.c.). The activity was expressed in units per grams of hemoglobin (U/g Hb) (Ghashghaeinia M. et al. 2012; l.c.). RBC pellet was diluted 1:20 with distilled water. After 10 min (for GR 20 min) incubation at 37° C., the reactions were started by adding substrate or hemolysate and mixed properly. Then, 200 μL of each reaction mixture was transferred into a 96-well plate and changes in absorbance were recorded at 340 nm at 1 min intervals for 20 min at 37° C. (Infinite 200 Nanoquant, Tecan). All assays were run in triplicates and specific enzyme activity was calculated using the Lambert-Beer law. Activity =(ΔA×V/(ϵ×l×t))×f.
0.1 M Tris-HCl/0.5 mM EDTA, pH=8.0; 0.01 M MgCl2; 0.2 mM NADP^+; 20 μL of 1:20 hemolysate; 10 min incubation at 37° C.; start by addition of 0.6 mM 6PGA+0.6 mM G6P

Series [5] concerns human erythrocytes. As to the kind of experiment: Intracellular GSH and GSSG analysis. Particulars: costunolide 1-80 μM, 24 h, FIG. 5. The protocol: For single (FIG. 5) or double treatments (FIG. 7), pure RBCs (0.6% Hct) were suspended in 30 ml Ringer solution and treated with varying concentrations of costunolide (1-80 μM) or different concentrations of chelerythrine (1-10 μM) and a fixed costunolide concentration (80 μM). DMSO-treated RBCs served as negative control. After incubation, 58 μl from a 310 mM NEM stock was given to each condition, gently mixed for 1 min and then centrifuged 10 min long at 10 C and 228×g. Supernatants were removed and the cell pellets were stored at −20° C. until analyses. GSH and GSSG were measured on the clear supernatant obtained by treatment of 0.1 ml RBCs with 0.12 ml 15% (w/v) trichloroacetic acid. […] GSSG was measured at the spectrophotometer by the GSH recycling method with slight modifications (Giustarini D. et al. 2013; Nat. Protoc. 8: 1660-1669, “Analysis of GSH and GSSG after derivatization with N-ethylmaleimide”). One aliquot of RBCs ([…]) was hemolyzed by a 1:200 dilution with H2O for haemoglobin determination (Di lorio E.E. 1981; Methods Enzymol. 76: 57-72 “Preparation of derivatives of ferrous and ferric hemoglobin”). The HPLC analyses were carried out by an Agilent series 1100 instrument. The spectrophotometric analyses were performed by a Jasco V-530 instrument.

`COc1ccc2c(c[n+](C)c3c4cc5c(cc4ccc23)OCO5)c1OC` [chelerythrine, 1,2-Dimethoxy-12-methyl[1,3]benzodioxolo[5,6-c]phenanthridinium] yielded a basal eryptosis rate in the series on human erythrocytes [1] (without costunolide, DMSO control 1.69%, FIG. 3A) of 1.1%.

For the molecule `C=C1C(=O)O[C@@H]2/C=C(\C)CC/C=C(\C)CC[C@@H]12` [costunolide], the cell shrinkage result in the series with human erythrocytes [2] is “increased rates of eryptosis and cell shrinkage”. Moreover, in the series with human erythrocytes [3], the hemolysis entry was “not associated with hemolysis”. The G6PDH activity entry in series [4] was “inhibit G6PDH activity completely”. For the same molecule, in the series on human erythrocytes [5], the “GSH (reduced glutathione) level” value was “deplete both the reduced (GSH) and the oxidized (GSSG) form of glutathione in a concentration-dependent manner”; the “GSSG (oxidized glutathione) level” value was “deplete both the reduced (GSH) and the oxidized (GSSG) form of glutathione in a concentration-dependent manner”. Further, in the series with human erythrocytes [1] (single treatment with increasing concentrations of costunolide, 24 h, FIG. 2), the eryptosis rate result is “increased rates of eryptosis”.
